Columns and labels:
[1] = target: T1, BRD9 bromodomain (Flag-BRD9 P133-K239; Swiss Prot Q9H8M2) (Homo sapiens, UniProt Q9H8M2); test: BRD9 Bromodomain TR-FRET Competition Binding Assay; details: competition with biotinylated BRD9 ligand; 90 minutes at room temperature
T1 construct: His-Flag-BRD9 (P133-K239); Swiss Prot Q9H8M2; His6 with TEV site (mgsshhhhhhenlyfq/) (N, cleaved yes); made in house
T1 sequence (Q9H8M2 133-239): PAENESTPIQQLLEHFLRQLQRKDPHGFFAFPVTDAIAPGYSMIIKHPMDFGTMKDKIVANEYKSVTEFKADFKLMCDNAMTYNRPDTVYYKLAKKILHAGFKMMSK
Description: Procedure: His-Flag-BRD9 (P133-K239; Swiss Prot Q9H8M2; SEQ ID NO:1 mgsshhhhhhenlyfq/gdykddddkgslevlfqg/[…] […]) was cloned, expressed, purified, and then treated with TEV protease. Cleaved His tag was removed by purification. The binding of a biotinylated small molecule ligand of BRD9 was assessed via the LANCE® TR-FRET platform (PerkinElmer), and the compounds were assayed for inhibitory activity against this interaction.
Results: A mixture of biotinylated-ligand and SureLight™ Allophycocyanin-Streptavidin (APC-SA, PerkinElmer AD0201) in 50 mM HEPES (pH 7.4), 50 mM NaCl, 1 mM TCEP (pH 7), 0.01% (v/v) Tween-20, 0.01% (w/v) bovine serum albumin was added to a white 384-well PerkinElmer Proxiplate Plus plate. DMSO or 3-fold serially diluted compounds were then added to the Proxiplate followed by addition of Flag-BRD9. After a 10-minute incubation at room temperature, Eu-W1024 anti-FLAG (PerkinElmer, AD0273) was added. The final reaction mixture that contained 3.75 nM biotinylated ligand, 3 nM Flag-BRD9, 7.5 nM SureLight™ Allophycocyanin-Streptavidin, and 0.2 nM Eu-W1024 anti-FLAG was incubated at room temperature for 90 minutes.
The plates were then read on a PerkinElmer Envision plate reader to determine the ratio of emission at 665 nm over 615 nm. […]

[2] = target: T2, Nanoluciferase-BRD9 fusion protein (3×FLAG-NLuc-BRD9) in SYO-1 cells (Homo sapiens, UniProt Q9H8M2); test: SYO1 BRD9 NanoLuc Degradation Assay; type: cell-based; details: 6 hours; SYO-1 cells expressing 3×FLAG-NLuc-BRD9; top dose 1 μM; read-out: SYO1 BRD9-NanoLuc degradation IC50
T2 construct: expressed in transfected cells; host or cells: SYO-1
T2 sequence (Q9H8M2 1-597): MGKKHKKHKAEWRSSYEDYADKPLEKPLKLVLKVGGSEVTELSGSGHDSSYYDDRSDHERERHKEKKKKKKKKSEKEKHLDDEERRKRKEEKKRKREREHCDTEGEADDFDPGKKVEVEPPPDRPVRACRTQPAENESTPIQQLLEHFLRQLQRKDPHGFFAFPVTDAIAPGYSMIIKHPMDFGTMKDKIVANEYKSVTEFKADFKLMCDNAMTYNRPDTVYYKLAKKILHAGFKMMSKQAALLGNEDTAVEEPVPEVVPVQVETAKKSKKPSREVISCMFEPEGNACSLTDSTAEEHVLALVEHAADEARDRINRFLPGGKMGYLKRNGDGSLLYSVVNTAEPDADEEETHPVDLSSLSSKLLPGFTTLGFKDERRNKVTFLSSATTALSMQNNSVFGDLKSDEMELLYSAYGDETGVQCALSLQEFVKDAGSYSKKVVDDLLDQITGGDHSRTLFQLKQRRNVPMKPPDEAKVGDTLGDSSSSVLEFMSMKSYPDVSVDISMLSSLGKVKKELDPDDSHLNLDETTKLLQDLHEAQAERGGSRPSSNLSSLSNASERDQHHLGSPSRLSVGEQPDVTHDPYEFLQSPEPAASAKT
Method in brief: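 Stable 3×FLAG-NLuc-BRD9 SYO-1 line, 8000 cells/well, dosed day 1 with 10-point 3-fold dilutions (1 μM final top, duplicates) for 6 h. NanoLuc bioluminescence read with Nano-Glo; % inhibition relative to DMSO (high) and 1 μM reference BRD9 degrader (low) controls.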

Row | IC50 [1] [nM] | DC50 [2] [nM] | SMILES
1 | < 10 |  | CNc1cc2c(-c3cc(OC)c(CN(C)C)c(OC)c3)cn(C)c(=O)c2cn1 [Compound B1, 4-[4-[(dimethylamino)methyl]-3,5-dimethoxyphenyl]-2-methyl-6-(methylamino)-1,2-dihydro-2,7-naphthyridin-1-one]
2 | < 10 |  | COc1cc(-c2cn(C)c(=O)c3cnc(N(C)C)cc23)cc(OC)c1CN(C)C [Compound B2, 6-(dimethylamino)-4-[4-[(dimethylamino)methyl]-3,5-dimethoxyphenyl]-2-methyl-1,2-dihydro-2,7-naphthyridin-1-one]
3 | ≥ 10 |  | CNc1cc2c(=O)n(C)cc(-c3cc(OC)c(CN(C)C)c(OC)c3)c2cn1 [Compound B3, 4-[4-[(Dimethylamino)methyl]-3,5-dimethoxyphenyl]-2-methyl-7-(methylamino)-1,2-dihydro-2,6-naphthyridin-1-one]
4 | ≥ 10 |  | COc1cc(-c2cn(C)c(=O)c3cnc(N)cc23)cc(OC)c1CN(C)C [Compound B4, 6-amino-4-[4-[(dimethylamino)methyl]-3,5-dimethoxyphenyl]-2-methyl-1,2-dihydro-2,7-naphthyridin-1-one]
5 | ≥ 10 |  | COc1cc(-c2cn(C)c(=O)c3cc(N)ncc23)cc(OC)c1CN(C)C [Compound B5, 7-amino-4-(4-((dimethylamino)methyl)-3,5-dimethoxyphenyl)-2-methyl-2,6-naphthyridin-1(2H)-one]
6 | ≥ 10 |  | COc1cc(-c2cn(C)c(=O)c3cc(NCC(=O)N(C)C)ncc23)cc(OC)c1CN(C)C [Compound B6, 2-[(8-[4-[(dimethylamino)methyl]-3,5-dimethoxyphenyl]-6-methyl-5-oxo-2,6-naphthyridin-3-yl)amino]-N,N-dimethylacetamide formic acid]
7 | < 10 | < 10 | COc1cc(-c2cn(C)c(=O)c3cnc(N(C)C)cc23)cc(OC)c1CN1CC(C(=O)NCCCCCOc2cccc3c2C(=O)N(C2CCC(=O)NC2=O)C3=O)C1 (centres unmarked) [Compound D1, 1-([4-[6-(dimethylamino)-2-methyl-1-oxo-1,2-dihydro-2,7-naphthyridin-4-yl]-2,6-dimethoxyphenyl]methyl)-N-(5-[[2-(2,6-dioxopiperidin-3-yl)-1,3-dioxo-2,3-dihydro-1H-isoindol-4-yl]oxy]pentyl)azetidine-3-carboxamide]
8 | < 10 | ≥ 100 | COc1cc(-c2cn(C)c(=O)c3cnc(N(C)C)cc23)cc(OC)c1CN1CC[C@H]1CN(C)Cc1cccc2c1C(=O)N(C1CCC(=O)NC1=O)C2=O (stereo partly drawn) [Compound D2, 4-(((((S)-1-(4-(6-(dimethylamino)-2-methyl-1-oxo-1,2-dihydro-2,7-naphthyridin-4-yl)-2,6-dimethoxybenzyl)azetidin-2-yl)methyl)(methyl)amino)methyl)-2-(2,6-dioxopiperidin-3-yl)isoindoline-1,3-dione]
9 | < 10 | ≥ 10 | COc1cc(-c2cn(C)c(=O)c3cnc(N(C)C)cc23)cc(OC)c1CN1CC(N(C)Cc2cccc3c2C(=O)N(C2CCC(=O)NC2=O)C3=O)C1 (centres unmarked) [Compound D3, 4-([[1-([4-[6-(dimethylamino)-2-methyl-1-oxo-2,7-naphthyridin-4-yl]-2,6-dimethoxyphenyl]methyl)azetidin-3-yl](methyl)amino]methyl)-2-(2,6-dioxopiperidin-3-yl)isoindole-1,3-dione formic acid]
10 | < 10 | ≥ 100 | COc1cc(-c2cn(C)c(=O)c3cnc(N(C)C)cc23)cc(OC)c1CN1CC[C@H]1C(=O)N(C)Cc1cccc2c1C(=O)N(C1CCC(=O)NC1=O)C2=O (stereo partly drawn) [Compound D4, (2S)-1-(4-(6-(dimethylamino)-2-methyl-1-oxo-1,2-dihydro-2,7-naphthyridin-4-yl)-2,6-dimethoxybenzyl)-N-((2-(2,6-dioxopiperidin-3-yl)-1,3-dioxoisoindolin-4-yl)methyl)-N-methylazetidine-2-carboxamide formic acid]

From patent publication US12391686B2, “Compounds and uses thereof” (Foghorn Therapeutics Inc., priority 2019, dated 2025)
